In brackets after ≈: the same amount, converted by molar mass. Like-named read-outs stand apart in the source and are kept apart here.
How the values were obtained:
rat GnRH receptor = target: T1, rat GnRH receptor (Rattus norvegicus, UniProt P30969); assay: Radioligand binding: inhibition of 125I-GnRH-A binding to rat GnRH receptor (rat pituitary membranes); details: read-out: Ki (nM), Inhibition Binding of 125I-GnRH-A to GnRH Receptors
T1 construct: or rat pituitaries (Pel Freez Biologicals, Rogers, Ark.) were homogenized; tissue Pel Freez Biologicals; host or cells: rat pituitaries (membrane preparation)
T1 sequence (P30969 1-327): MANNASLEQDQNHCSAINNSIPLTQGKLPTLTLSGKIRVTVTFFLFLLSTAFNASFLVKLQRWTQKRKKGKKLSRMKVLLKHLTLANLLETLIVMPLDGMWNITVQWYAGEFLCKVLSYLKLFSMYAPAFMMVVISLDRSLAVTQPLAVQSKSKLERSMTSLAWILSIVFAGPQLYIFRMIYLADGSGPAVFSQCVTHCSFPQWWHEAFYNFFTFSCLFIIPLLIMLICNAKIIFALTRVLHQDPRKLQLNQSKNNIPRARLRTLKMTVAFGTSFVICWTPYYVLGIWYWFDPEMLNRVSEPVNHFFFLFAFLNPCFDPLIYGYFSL
Outline: (§1)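 Membranes from rat pituitaries, or HEK 293 cells stably expressing mouse or human receptor, incubated 1 hour at room temperature with ~0.04-0.06 nM radioligand (HEPES pH 7.4, EDTA, MgCl2, BSA) and competitor at 0.1-10,000 nM. Bound ligand collected by GF/C filtration and counted; Ki derived from IC50 by Cheng-Prusoff.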

[1] = In vitro metabolism: disappearance of parent compound in rat liver microsomes (male, female); format: in vitro ADME; details: 5 uM compound, 30 minutes 37° C.
Outline: (§2)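 Microsomes from human, rat (male, female), dog and monkey liver incubated with 5 uM compound, 0.5 mg/ml protein and 2 mM NADPH in 50 mM K phosphate, pH 7.4, for 30 min at 37° C. Reaction stopped with acetonitrile; parent compound remaining measured by LC-MS.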

mouse GnRH receptors = target: T2, mouse GnRH receptors (Mus musculus, UniProt Q01776); assay: Radioligand binding: inhibition of 125I-GnRH-A binding to mouse GnRH receptor membranes; details: HEK 293 cell membranes
T2 construct: expressed in transfected cells; host or cells: HEK 293 cells, stably transfected; membranes
T2 sequence (Q01776 1-327): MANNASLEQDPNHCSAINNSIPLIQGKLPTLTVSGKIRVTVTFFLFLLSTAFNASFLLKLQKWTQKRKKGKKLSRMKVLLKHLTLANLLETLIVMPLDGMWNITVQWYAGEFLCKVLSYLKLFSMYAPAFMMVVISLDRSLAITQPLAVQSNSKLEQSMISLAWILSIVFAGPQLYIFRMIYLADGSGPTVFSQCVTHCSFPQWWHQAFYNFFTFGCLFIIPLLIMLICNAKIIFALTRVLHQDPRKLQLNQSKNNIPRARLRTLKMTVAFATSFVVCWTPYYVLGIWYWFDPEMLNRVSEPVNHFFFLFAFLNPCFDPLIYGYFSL
Procedure: HEK 293 cells stably transfected with mouse or human GnRH receptors as described above were grown in Dulbecco's high-glucose, modified Eagle's medium (DMEM) supplemented with 0.2% G418, 10% fetal bovine serum (FBS) and 100 U/mL penicillin/streptomycin. GH3 cells stably transfected with the rat GnRH receptor (GGH3) were provided by Dr. William Chin (Harvard Medical School, Boston, Mass.). These cells have been extensively characterized previously (Kaiser et al., 1997). The cells were grown in low glucose DMEM containing: 100U/mL penicillin/streptomycin, 0.6% G418 and 10% heat-inactivated FBS.
HEK 293 cells containing mouse or human receptors, or rat pituitaries (Pel Freez Biologicals, Rogers, Ark.) were homogenized in buffer A containing: 50 mM Tris (pH 7.4), 0.32 M sucrose, 2 mM EGTA, 1 mM PMSF, 5 μg/ml aprotinen, 5 μg/ml Pepstatin A, and 1 μg/ml leupeptin. Homogenized cells were centrifuged at 4° C. at 20,000×g for 25 minutes, re-suspended in buffer A and re-centrifuged at 4° C. at 20,000×g for an additional 25 minutes. Total membrane protein was determined with a BCA kit (Pierce, Rockford, Ill.). Membranes were stored at −70° C. at a final membrane protein concentration of approximately 5 mg/ml.
The radioiodinated agonist analog of GnRH, [des-Gly^10,D-Ala^6]GnRH ethylamide (^125I-GnRH-A), was used as the radioligand. […] The reaction mixture was vortexed and incubated for 1 minute at room temperature. After one minute, the mixture was vortexed and allowed to incubate for an additional minute. 2 ml of 0.5 M acetic acid/1% BSA was added to the reaction tube and the mixture was added to a C18 Sep-Pak cartridge. The cartridge was washed with subsequent washes of 5 ml H2O and 5 ml 0.5 M acetic acid and then eluted with 5×1 ml of 60% CH3CN/40% 0.5 M acetic acid. The eluate was diluted with 3× volume of HPLC buffer A (0.1% TFA in H2O) and loaded onto a C18 column. The iodinated product was eluted over 20-25 min with a gradient of 25-100% CH3CN containing 0.1% TFA. The radioactive fractions (750 μl/fraction) were collected into clean polypropylene tubes containing 100 μl of 10% BSA. Fractions were assessed for biological activity by radioligand binding. Specific activity of the radioligand was approximately 2200 Ci/mmol.
Membranes were diluted to 0.01-0.5 mg/ml (depending upon the species of receptor) with assay buffer containing 50 mM HEPES (pH 7.4), 1 mM EDTA, 2.5 mM MgCl2, and 0.1% BSA. Membranes (diluted to utilize similar receptor numbers between assays) were incubated with approximately 0.04-0.06 nM ^125I-GnRH-A in the presence or absence of competing agents (0.1-10,000 nM) in a total volume of 200 μl in 96-well polypropylene plates for 1 hour at room temperature. Assays were stopped by rapid filtration onto 96-well GF/C filters soaked in 0.1% polyethylenimine (PEI) utilizing a Packard 96-well cell harvester. Filters were washed three times with ice-cold PBS (50 mM NaPO4, 0.9% NaCl, 2 mM MgCl2, and 0.02% NaN3, pH 7.4). 35 μl of scintillation cocktail was added to each filter well and filters were counted on a Packard Topcount. Control dose-response curves were generated to GnRH (0.1 nM-100 nM) in each competition binding experiment. Ki values were calculated from IC50 values according to Cheng et al., Biochemical Pharmacol. 22: 3099-3108, 1973. [formula]

human GnRH receptors = target: T3, human GnRH receptors (Homo sapiens, UniProt P30968); assay: Radioligand binding: inhibition of 125I-GnRH-A binding to human GnRH receptor membranes; details: HEK 293 cell membranes
T3 construct: expressed in transfected cells; host or cells: HEK 293 cells, stably transfected; membranes
T3 sequence (P30968 1-328): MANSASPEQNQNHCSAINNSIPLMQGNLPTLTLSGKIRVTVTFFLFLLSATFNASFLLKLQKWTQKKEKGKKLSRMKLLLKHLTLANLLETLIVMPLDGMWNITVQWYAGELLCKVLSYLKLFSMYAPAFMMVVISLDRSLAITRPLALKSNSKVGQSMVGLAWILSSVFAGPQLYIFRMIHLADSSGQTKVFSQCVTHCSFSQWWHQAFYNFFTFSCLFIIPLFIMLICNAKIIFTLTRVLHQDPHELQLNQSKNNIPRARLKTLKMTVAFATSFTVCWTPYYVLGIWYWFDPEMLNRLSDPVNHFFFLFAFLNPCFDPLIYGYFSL
Outline: as §1

[2] = In vitro metabolism: disappearance of parent compound in dog liver microsomes; format: in vitro ADME; details: 5 uM compound, 30 minutes 37° C.
Outline: as §2

[3] = In vitro metabolism: disappearance of parent compound in monkey liver microsomes; format: in vitro ADME; details: 5 uM compound, 30 minutes 37° C.
Outline: as §2

[4] = In vitro metabolism: disappearance of parent compound in human liver microsomes; format: in vitro ADME; details: 5 uM compound, 0.5 mg/ml protein, 2 mM NADPH, 30 minutes 37° C.
Outline: as §2

[5] = Solubility at pH2 and pH6; format: physicochemical
Rat plasma % remain = format: in vitro ADME
[6] = target: T4, GGH3 cells (GH3 cells stably transfected with the rat GnRH receptor) (Rattus norvegicus, UniProt P30969); assay: Effect of compounds on 125I-GnRH-A binding to GGH3 cells (competition radioligand binding, whole cells); details: on ice 2 hr
T4 construct: host or cells: GH3 cells stably transfected (GGH3), whole cells
T4 sequence (P30969 1-327): T1 sequence (P30969 1-327)
Procedure: Cell Culture. GGH3 cells (Dr. William Chin, Harvard Medical School, Boston, Mass.) are grown in low glucose Dulbecco's modified Eagle's medium (DMEM) containing 100 U/mL penicillin/streptomycin, 0.6 g/L G418 and 10% heat-inactivated FBS.
The reaction mixture is vortexed and incubated for 1 min at room temperature. Two; ml of 0.5 M acetic acid is added to the reaction tube and the mixture is added to a C18 Sep-Pak cartridge: The cartridge is washed with subsequent washes of 5 ml H2O and 5 ml 0.5M acetic acid and then eluted with 5×1 ml of 60% CH3CN/40% 0.5M acetic acid. The eluate is diluted with 3× volume of HPLC buffer A (0.1% TFA in H2O) and loaded onto a C18 column. The iodinated product is eluted over 20-25 min with a gradient of 25-100% CH3CN containing 0.1% TFA. The radioactive fractions (750 μl/fraction) are collected into clean polypropylene tubes containing 100 μl of 10% BSA. Fractions are assessed for biological activity by radioligand binding.
Reactions are performed on ice for 2 hr and stopped by the addition of 2 ml of ice-cold PBS wash buffer (50 mM NaPO4, 0.9% NaCl, 2 mM MgCl2, and 0.02% NaN3, pH 7.4) and rapid filtration onto GF/C filters presoaked with 0.05% polyethylenimine utilizing a Brandel cell harvester. Filters are counted on a gamma counter. […]

CNc1nc(OC)c(NC(=O)c2ccc(Cc3cc4c(cc3C)C(C)(C)CCC4(C)C)o2)c(OC)n1 [Example B1, 5-(3,5,5,8,8-Pentamethyl-5,6,7,8-tetrahydro-naphthalen-2-ylmethyl)-furan-2-carboxylic Acid (4,6-dimethoxy-2-methylamino-pyrimidin-5-yl)-amide]
Ki (rat GnRH receptor): 0.79 nM
Fem. Rat (FR) % rem. 30′ ([1]; female rat liver microsomes): 94%
Male Rat (MR) % rem. 30′ ([1]; male rat liver microsomes): 1%
Ki (mouse GnRH receptors): 0.75 nM
Ki (human GnRH receptors): 1 nM
Dog % rem. 30′ [2]: 2%
Monkey % rem. [3]: 0%
Human % rem. 30′ [4]: 54%
solubility ([5]; pH 2, simulated gastric fluid, pH2, read-out: Solubility μg/ml pH2): 1.2 µg/mL (≈ 2.44 µM)
solubility ([5]; pH 6, aqueous buffer, pH6, read-out: Solubility μg/ml pH6): 0.4 µg/mL (≈ 0.812 µM)
Rat plasma % remain (Rat plasma % remain): 100%

COc1nc(N2CCOCC2)nc(OC)c1NC(=O)c1ccc(Cc2cc3c(cc2C)C(C)(C)CCC3(C)C)o1 [Example B3, 5-(3,5,5,8,8-Pentamethyl-5,6,7,8-tetrahydro-naphthalen-2-ylmethyl)-furan-2-carboxylic Acid (4,6-dimethoxy-2-morpholin-4-yl-pyrimidin-5-yl)-amide]
Ki (rat GnRH receptor): 14 nM
Ki (mouse GnRH receptors): 5.3 nM
Ki (human GnRH receptors): 4.7 nM

COc1nc(NCCN2CCCC2)nc(OC)c1NC(=O)c1ccc(Cc2cc3c(cc2C)C(C)(C)OC3(C)C)o1 [Example D23, N-{4,6-Dimethoxy-2-[(2-pyrrolidin-1-ylethyl)amino]-pyrimidin-5-yl}-5-[(1,1,3,3,6-pentamethyl-1,3-dihydro-2-benzofuran-5-yl)methyl]-2-furamide Acetate]
Ki (rat GnRH receptor): 0.92 nM
Ki (mouse GnRH receptors): 1.7 nM
Ki (human GnRH receptors): 1.6 nM

Ac-D-2-Nal-p-chloro-D-Phe-β-(3-pyridyl)-D-Ala-Ser-Lys(nicotinoyl)-D-Lys(nicotinoyl)-Leu-Lys(isopropyl)-Pro-D-Ala-NH2 [Antide]
ability to inhibit 125I-GnRH-A binding to GGH3 cells [6]: blocked

pGlu-His-Trp-Ser-Tyr-Gly-Leu-Arg-Pro-Gly-NH2 [GnRH]
ability to inhibit 125I-GnRH-A binding to GGH3 cells [6]: blocked

Source: US6833372B2, “Non-peptide GnRH agents, Pharmaceutical compositions, and methods for their use” (Pfizer, Inc., priority 2002, dated 2004)
